Columns and labels:
Assay type in all cases: in vivo
[1] = system: Foxtail, Giant (giant foxtail, Setaria faberi); assay: Test A postemergence, Foxtail, Giant; settings: Postemergence, 0 to 100 scale (0 no effect, 100 complete control); for Plant response rating, Foxtail, Giant: 125 g ai/ha; for Foxtail, Giant plant response rating: 500 g ai/ha, visual injury vs untreated controls after approx. 10 days
Procedure, shortened: (§1)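 Greenhouse pot test in a loam–sand blend; compounds delivered in a non-phytotoxic solvent carrying a surfactant, applied either as a directed spray to soil at seeding or over seedlings 2 to 10 cm high with one to two leaves.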

[2] = system: pigweed (Amaranthus retroflexus); assay: Test A preemergence, pigweed; settings: 0 to 100 scale (0 no effect, 100 complete control)
Procedure, shortened: (§2)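 Directed soil spray at planting gave the preemergence treatment, while foliar application to one- to two-leaf seedlings (2–10 cm) gave the postemergence one; pots held a loam and sand mixture and chemicals were carried in a non-phytotoxic solvent with surfactant.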

[3] = system: barnyardgrass (Echinochloa crus-galli); assay: Test A preemergence, barnyardgrass; settings: Preemergence, 0 to 100 scale (0 no effect, 100 complete control)
Procedure, shortened: as §1

[4] = system: Ryegrass, Italian (Italian ryegrass, Lolium multiflorum); assay: Test A preemergence, Ryegrass, Italian; settings: Preemergence, 0 to 100 scale (0 no effect, 100 complete control)
Procedure, shortened: as §1

[5] = system: galium (catchweed bedstraw, Galium aparine); assay: Test A postemergence, galium; settings: Postemergence, 0 to 100 scale (0 no effect, 100 complete control); for Plant response rating, Galium: 125 g ai/ha; for Galium plant response rating: 500 g ai/ha, visual injury vs untreated controls after approx. 10 days
Procedure, shortened: as §2

[6] = system: Ryegrass, Italian (Italian ryegrass, Lolium multiflorum); assay: Test A postemergence, Ryegrass, Italian; settings: Postemergence, 0 to 100 scale (0 no effect, 100 complete control); for Plant response rating, Ryegrass, Italian: 125 g ai/ha; for Ryegrass, Italian plant response rating: 500 g ai/ha, visual injury vs untreated controls after approx. 10 days
Procedure, shortened: as §1

[7] = system: wheat (Triticum aestivum); assay: Test A postemergence, wheat; settings: Postemergence, 0 to 100 scale (0 no effect, 100 complete control); for Plant response rating, Wheat: 125 g ai/ha; for Wheat plant response rating: 500 g ai/ha, visual injury vs untreated controls after approx. 10 days
Procedure, shortened: as §2

[8] = system: pigweed (Amaranthus retroflexus); assay: Test A postemergence, pigweed; settings: Postemergence, 0 to 100 scale (0 no effect, 100 complete control); for Plant response rating, Pigweed: 125 g ai/ha; for Pigweed plant response rating: 500 g ai/ha, visual injury vs untreated controls after approx. 10 days
Procedure, shortened: as §1

[9] = system: kochia (Bassia scoparia); assay: Test A preemergence, kochia; settings: Preemergence, 0 to 100 scale (0 no effect, 100 complete control)
Procedure, shortened: as §1

[10] = system: barnyardgrass (Echinochloa crus-galli); assay: Test A postemergence, barnyardgrass; settings: Postemergence, 0 to 100 scale (0 no effect, 100 complete control); for Plant response rating, Barnyardgrass: 125 g ai/ha; for Barnyardgrass plant response rating: 500 g ai/ha, visual injury vs untreated controls after approx. 10 days
Procedure, shortened: as §2

[11] = system: kochia (Bassia scoparia); assay: Test A postemergence, kochia; settings: Postemergence, 0 to 100 scale (0 no effect, 100 complete control); for Plant response rating, Kochia: 125 g ai/ha; for Kochia plant response rating: 500 g ai/ha, visual injury vs untreated controls after approx. 10 days
Procedure, shortened: as §1

[12] = system: ragweed (common ragweed, Ambrosia artemisiifolia); assay: Test A preemergence, ragweed; settings: Preemergence, 0 to 100 scale (0 no effect, 100 complete control)
Procedure, shortened: as §1

[13] = system: blackgrass (Alopecurus myosuroides); assay: Test A postemergence, blackgrass; settings: Postemergence, 0 to 100 scale (0 no effect, 100 complete control); for Plant response rating, Blackgrass: 125 g ai/ha; for Blackgrass plant response rating: 500 g ai/ha, visual injury vs untreated controls after approx. 10 days
Procedure, shortened: as §1

[14] = system: Foxtail, Giant (giant foxtail, Setaria faberi); assay: Test A preemergence, Foxtail, Giant; settings: Preemergence, 0 to 100 scale (0 no effect, 100 complete control)
Procedure, shortened: as §1

[15] = system: ragweed (common ragweed, Ambrosia artemisiifolia); assay: Test A postemergence, ragweed; settings: Postemergence, 0 to 100 scale (0 no effect, 100 complete control); for Plant response rating, Ragweed: 125 g ai/ha; for Ragweed plant response rating: 500 g ai/ha, visual injury vs untreated controls after approx. 10 days
Procedure, shortened: as §1

[16] = system: corn (Zea mays); assay: Test A postemergence, corn; settings: Postemergence, 0 to 100 scale (0 no effect, 100 complete control); for Plant response rating, Corn: 125 g ai/ha; for Corn plant response rating: 500 g ai/ha, visual injury vs untreated controls after approx. 10 days
Procedure, shortened: as §1

[17] = 125 g ai/ha, visual injury, approx. 10 days

Cc1cc(F)c(C(=O)N2CCCCC2)cc1NS(=O)(=O)C(F)(F)F [Compound 211]
70: Plant response rating, Ryegrass, Italian ([4]; 500 g ai/ha) | Galium plant response rating [5]
50: Foxtail, Giant plant response rating [1] | Plant response rating, Ryegrass, Italian [4, 17] | Kochia plant response rating [11]
60: Plant response rating, Barnyardgrass [3, 17] | Plant response rating, Galium [5] | Pigweed plant response rating [8] | Plant response rating, Foxtail, Giant [14, 17] | Ragweed plant response rating [15]
20: Plant response rating, Pigweed [2, 17]
90: Plant response rating, Pigweed ([2]; 500 g ai/ha) | Plant response rating, Barnyardgrass ([3]; 500 g ai/ha) | Plant response rating, Kochia ([9]; 500 g ai/ha) | Plant response rating, Foxtail, Giant ([14]; 500 g ai/ha)
40: Plant response rating, Ryegrass, Italian [6] | Plant response rating, Pigweed [8]
30: Ryegrass, Italian plant response rating [6] | Barnyardgrass plant response rating [10] | Plant response rating, Ragweed [12, 17] | Plant response rating, Ragweed [15]
80: Plant response rating, Kochia [9, 17] | Plant response rating, Ragweed ([12]; 500 g ai/ha)
0: Plant response rating, Foxtail, Giant [1] | Plant response rating, Wheat [7] | Wheat plant response rating [7] | Plant response rating, Barnyardgrass [10] | Plant response rating, Blackgrass [13] | Blackgrass plant response rating [13] | Plant response rating, Corn [16] | Corn plant response rating [16]
10: Plant response rating, Kochia [11]

Cc1cc(F)c(C(=O)N2CCCCC2)cc1N(S(=O)(=O)C(F)(F)F)S(=O)(=O)C(F)(F)F [Compound 212]
60: Pigweed plant response rating [8]
70: Plant response rating, Ryegrass, Italian ([4]; 500 g ai/ha) | Galium plant response rating [5] | Kochia plant response rating [11]
20: Foxtail, Giant plant response rating [1] | Plant response rating, Pigweed [8] | Plant response rating, Kochia [11] | Plant response rating, Foxtail, Giant [14, 17] | Plant response rating, Ragweed [15] | Ragweed plant response rating [15]
50: Plant response rating, Galium [5] | Ryegrass, Italian plant response rating [6]
30: Plant response rating, Ryegrass, Italian [4, 17] | Plant response rating, Kochia [9, 17] | Plant response rating, Ragweed ([12]; 500 g ai/ha)
0: Plant response rating, Foxtail, Giant [1] | Plant response rating, Barnyardgrass [3, 17] | Plant response rating, Ryegrass, Italian [6] | Plant response rating, Wheat [7] | Wheat plant response rating [7] | Plant response rating, Barnyardgrass [10] | Barnyardgrass plant response rating [10] | Plant response rating, Ragweed [12, 17] | Plant response rating, Blackgrass [13] | Blackgrass plant response rating [13] | Plant response rating, Corn [16]
10: Corn plant response rating [16]
90: Plant response rating, Pigweed [2, 17] | Plant response rating, Pigweed ([2]; 500 g ai/ha) | Plant response rating, Barnyardgrass ([3]; 500 g ai/ha) | Plant response rating, Kochia ([9]; 500 g ai/ha) | Plant response rating, Foxtail, Giant ([14]; 500 g ai/ha)

Cc1cc(F)c(C(=O)N(C)C)cc1NS(=O)(=O)C(F)(F)F [Compound 215]
90: Plant response rating, Pigweed ([2]; 500 g ai/ha) | Plant response rating, Barnyardgrass ([3]; 500 g ai/ha) | Plant response rating, Kochia ([9]; 500 g ai/ha)
40: Barnyardgrass plant response rating [10] | Plant response rating, Foxtail, Giant [14, 17]
100: Plant response rating, Pigweed [2, 17]
50: Foxtail, Giant plant response rating [1] | Plant response rating, Galium [5] | Plant response rating, Pigweed [8]
70: Plant response rating, Ryegrass, Italian ([4]; 500 g ai/ha) | Galium plant response rating [5] | Wheat plant response rating [7] | Kochia plant response rating [11] | Plant response rating, Foxtail, Giant ([14]; 500 g ai/ha)
20: Plant response rating, Foxtail, Giant [1] | Plant response rating, Ryegrass, Italian [4, 17] | Plant response rating, Ragweed ([12]; 500 g ai/ha)
80: Pigweed plant response rating [8] | Plant response rating, Kochia [9, 17] | Ragweed plant response rating [15]
60: Plant response rating, Barnyardgrass [3, 17] | Ryegrass, Italian plant response rating [6] | Plant response rating, Ragweed [15] | Corn plant response rating [16]
30: Plant response rating, Wheat [7] | Plant response rating, Kochia [11]
0: Plant response rating, Ryegrass, Italian [6] | Plant response rating, Barnyardgrass [10] | Plant response rating, Ragweed [12, 17] | Plant response rating, Blackgrass [13] | Blackgrass plant response rating [13] | Plant response rating, Corn [16]

Reference: US20230278972A1, “SUBSTITUTED HALOALKYL SULFONANILIDE HERBICIDES” (FMC Corporation, priority 2020, published 2023)
